Test system: NCI-H1417 complex spheroids, growth % test/control
Assay: Anticancer human tumor NCI-H1417 cell line growth inhibition [Asc];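 further: spheroids exposed to compounds for 7 days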;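 on viability, T/C: 100% = DMSO vehicle control wells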
Settings: for IC50: curve of first compound; for viability, T/C: stronger effect = lower value
Procedure, shortened: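 Concentration series start at each agent's clinical Cmax, or at 10 microM when none is established, and drop in half-log steps; agents are applied alone or together to complex spheroids built with HUVEC and hMSC.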

[1] = second compound 0.03 µM, first compound 0.0316 µM
[2] = second compound 0.03 µM, first compound 0.1 µM
[3] = second compound 0.03 µM, first compound 0.316 µM
[4] = second compound 0.03 µM, first compound 1 µM
[5] = second compound 0.03 µM, first compound 3.16 µM
[6] = second compound 0.03 µM, first compound 10 µM
[7] = second compound 0.0949 µM, first compound 0.0316 µM
[8] = second compound 0.0949 µM, first compound 0.1 µM
[9] = second compound 0.0949 µM, first compound 0.316 µM
[10] = second compound 0.0949 µM, first compound 1 µM
[11] = second compound 0.0949 µM, first compound 3.16 µM
[12] = second compound 0.0949 µM, first compound 10 µM
[13] = second compound 0.3 µM, first compound 0.0316 µM
[14] = second compound 0.3 µM, first compound 0.1 µM
[15] = second compound 0.3 µM, first compound 0.316 µM
[16] = second compound 0.3 µM, first compound 1 µM
[17] = second compound 0.3 µM, first compound 3.16 µM
[18] = second compound 0.3 µM, first compound 10 µM
[19] = second compound 0.949 µM, first compound 0.0316 µM
[20] = second compound 0.949 µM, first compound 0.1 µM
[21] = second compound 0.949 µM, first compound 0.316 µM
[22] = second compound 0.949 µM, first compound 1 µM
[23] = second compound 0.949 µM, first compound 3.16 µM
[24] = second compound 0.949 µM, first compound 10 µM
[25] = second compound 3 µM, first compound 0.0316 µM
[26] = second compound 3 µM, first compound 0.1 µM
[27] = second compound 3 µM, first compound 0.316 µM
[28] = second compound 3 µM, first compound 1 µM
[29] = second compound 3 µM, first compound 3.16 µM
[30] = second compound 3 µM, first compound 10 µM

Row | Compound | IC50 (second compound 0.03 µM) [µM] | IC50 (second compound 0.0949 µM) [µM] | IC50 (second compound 0.3 µM) [µM] | IC50 (second compound 0.949 µM) [µM] | IC50 (second compound 3 µM) [µM] | viability, T/C [1] [%] | viability, T/C [2] [%] | viability, T/C [3] [%] | viability, T/C [4] [%] | viability, T/C [7] [%] | viability, T/C [8] [%] | viability, T/C [9] [%] | viability, T/C [10] [%] | viability, T/C [13] [%] | viability, T/C [14] [%] | viability, T/C [15] [%] | viability, T/C [16] [%] | viability, T/C [19] [%] | viability, T/C [20] [%] | viability, T/C [21] [%] | further results
1 | C#Cc1c(F)ccc2cc(O)cc(-c3ncc4c(N5CC6CCC(C5)N6)nc(OCC56CCCN5CC(F)C6)nc4c3F)c12 (stereo not given) + CCN1C(C(=O)NC23CCC(C(=O)O)(CC2)CC3)C(c2cccc(Cl)c2F)C2(C(=O)Nc3cc(Cl)ccc32)C12CCCCC2 | > 10 | > 10 | > 10 | > 10 | > 10 | 101 | 106 | 106 | 102 | 107 | 103 | 93.9 | 95.2 | 98.2 | 94.7 | 94.8 | 105 | 88.2 | 96.9 | 97.3 | viability, T/C [5]: 103%; viability, T/C [6]: 111%; viability, T/C [11]: 108%; viability, T/C [12]: 109%; viability, T/C [17]: 108%; viability, T/C [18]: 108%; viability, T/C [22]: 88.3%; viability, T/C [23]: 84%; viability, T/C [24]: 77.3%; viability, T/C [25]: 91%; viability, T/C [26]: 88.1%; viability, T/C [27]: 105%; viability, T/C [28]: 88.7%; viability, T/C [29]: 89.5%; viability, T/C [30]: 95.7%
2 | C=C(F)C(=O)N1CCN(c2nc(OCC3CCCN3C)nc3c2CCN(c2cccc4cccc(Cl)c24)C3)CC1CC#N (stereo not given) + CCN1C(C(=O)NC23CCC(C(=O)O)(CC2)CC3)C(c2cccc(Cl)c2F)C2(C(=O)Nc3cc(Cl)ccc32)C12CCCCC2 | 3.58 | 3.25 | 3.33 | 2.77 | 2.25 | 107 | 111 | 102 | 95.4 | 97.9 | 93.6 | 100 | 91 | 103 | 98.5 | 97.4 | 87 | 100 | 102 | 85.5 | viability, T/C [5]: 55.8%; viability, T/C [6]: 0.19%; viability, T/C [11]: 51.3%; viability, T/C [12]: 0.19%; viability, T/C [17]: 52.3%; viability, T/C [18]: 0.17%; viability, T/C [22]: 82.4%; viability, T/C [23]: 44.9%; viability, T/C [24]: 0.19%; viability, T/C [25]: 93.3%; viability, T/C [26]: 89.9%; viability, T/C [27]: 86.1%; viability, T/C [28]: 79.1%; viability, T/C [29]: 37.8%; viability, T/C [30]: 0.4%
3 | C=CC(=O)N1CCN(c2nc(=O)n(-c3c(C)ccnc3C(C)C)c3nc(-c4c(O)cccc4F)c(F)cc23)C(C)C1 (stereo not given) + CCN1C(C(=O)NC23CCC(C(=O)O)(CC2)CC3)C(c2cccc(Cl)c2F)C2(C(=O)Nc3cc(Cl)ccc32)C12CCCCC2 | > 10 | > 10 | > 10 | > 10 | > 10 | 94.4 | 100 | 109 | 101 | 102 | 94.4 | 98.4 | 101 | 102 | 107 | 106 | 94.3 | 94.3 | 95.4 | 93.1 | viability, T/C [5]: 115%; viability, T/C [6]: 105%; viability, T/C [11]: 104%; viability, T/C [12]: 119%; viability, T/C [17]: 99.8%; viability, T/C [18]: 112%; viability, T/C [22]: 97.9%; viability, T/C [23]: 95.5%; viability, T/C [24]: 99.5%; viability, T/C [25]: 91.6%; viability, T/C [26]: 93.2%; viability, T/C [27]: 98.5%; viability, T/C [28]: 93.7%; viability, T/C [29]: 93.4%; viability, T/C [30]: 103%
4 | CNC(C)C(=O)NC1CN(S(=O)(=O)c2cccc(S(=O)(=O)N3CCC4CCC(C(=O)NC(c5ccccc5)c5ccccc5)N4C(=O)C(NC(=O)C(C)NC)C3)c2)CCC2CCC(C(=O)NC(c3ccccc3)c3ccccc3)N2C1=O (stereo not given) + CCN1C(C(=O)NC23CCC(C(=O)O)(CC2)CC3)C(c2cccc(Cl)c2F)C2(C(=O)Nc3cc(Cl)ccc32)C12CCCCC2 | > 1 | > 1 | > 1 | > 1 | > 1 | 112 | 111 | 99.8 | 109 | 108 | 91.5 | 101 | 115 | 94.6 | 104 | 105 | 100 | 93.4 | 97.5 | 87.1 | viability, T/C (second compound 0.03 µM, first compound 0.00316 µM): 121%; viability, T/C (second compound 0.03 µM, first compound 0.01 µM): 107%; viability, T/C (second compound 0.0949 µM, first compound 0.00316 µM): 101%; viability, T/C (second compound 0.0949 µM, first compound 0.01 µM): 94.8%; viability, T/C (second compound 0.3 µM, first compound 0.00316 µM): 116%; viability, T/C (second compound 0.3 µM, first compound 0.01 µM): 118%; viability, T/C (second compound 0.949 µM, first compound 0.00316 µM): 97%; viability, T/C (second compound 0.949 µM, first compound 0.01 µM): 98.9%; viability, T/C [22]: 91.1%; viability, T/C (second compound 3 µM, first compound 0.00316 µM): 97.2%; viability, T/C (second compound 3 µM, first compound 0.01 µM): 98.8%; viability, T/C [25]: 91.8%; viability, T/C [26]: 90.8%; viability, T/C [27]: 84.2%; viability, T/C [28]: 99.4%

Reference: PubChem BioAssay AID1963440 (Molecular Pharmacology Branch, DTP, NCI, 2024)
